Two compounds from BindingDB's records for doi:10.1021/jm201510p (Abo Akademi University, 2012) can be followed below.

Molecules are shown by their SMILES.

This test concerns the target T1, Poly [ADP-ribose] polymerase tankyrase-2 (Homo sapiens, UniProt Q9H2K2).
T1 sequence (Q9H2K2 whole entry): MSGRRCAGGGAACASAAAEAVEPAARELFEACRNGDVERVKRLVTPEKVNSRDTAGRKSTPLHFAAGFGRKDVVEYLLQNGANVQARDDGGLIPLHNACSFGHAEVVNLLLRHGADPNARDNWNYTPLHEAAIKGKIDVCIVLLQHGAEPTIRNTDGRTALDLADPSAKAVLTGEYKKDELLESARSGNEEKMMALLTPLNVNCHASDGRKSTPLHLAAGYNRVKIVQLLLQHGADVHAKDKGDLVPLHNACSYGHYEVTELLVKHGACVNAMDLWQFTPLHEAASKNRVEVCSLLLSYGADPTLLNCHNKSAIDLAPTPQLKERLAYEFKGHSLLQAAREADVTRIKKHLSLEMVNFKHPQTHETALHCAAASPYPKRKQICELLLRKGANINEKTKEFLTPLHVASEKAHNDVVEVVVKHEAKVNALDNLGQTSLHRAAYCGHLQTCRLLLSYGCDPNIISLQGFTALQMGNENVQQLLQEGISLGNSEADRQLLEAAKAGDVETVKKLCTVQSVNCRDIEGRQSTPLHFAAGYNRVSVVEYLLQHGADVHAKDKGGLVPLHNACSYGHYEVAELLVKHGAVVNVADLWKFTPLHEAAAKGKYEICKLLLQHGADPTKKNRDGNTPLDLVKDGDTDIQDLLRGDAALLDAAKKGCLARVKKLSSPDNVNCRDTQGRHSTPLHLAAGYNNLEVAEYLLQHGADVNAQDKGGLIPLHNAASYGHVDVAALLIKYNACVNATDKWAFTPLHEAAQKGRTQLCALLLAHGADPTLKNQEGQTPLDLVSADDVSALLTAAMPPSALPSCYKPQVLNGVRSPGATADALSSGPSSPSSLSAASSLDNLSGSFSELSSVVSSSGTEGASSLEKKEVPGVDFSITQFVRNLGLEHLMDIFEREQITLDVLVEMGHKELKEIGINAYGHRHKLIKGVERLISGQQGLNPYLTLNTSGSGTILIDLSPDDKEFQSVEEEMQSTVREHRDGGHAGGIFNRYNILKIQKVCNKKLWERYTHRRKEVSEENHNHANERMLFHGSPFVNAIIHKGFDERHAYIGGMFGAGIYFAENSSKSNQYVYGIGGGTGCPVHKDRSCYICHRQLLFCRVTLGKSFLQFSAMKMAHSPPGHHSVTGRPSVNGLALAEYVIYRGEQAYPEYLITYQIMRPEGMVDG
As to the kind of experiment: Activity of N-terminus hexaHis-tagged human TNSK2 expressed in Escherichia coli BL21 (DE3) cells using biotinylated NAD+ as substrate after 90 mins by Western blot analysis.

The compound `O=C(Nc1ccccc1)c1ccc(-n2c(O)c3c(c2O)[C@H]2C=C[C@@H]3C2)cc1` yielded an EC50 of more than 25 µM. `O=C(NC1CCCCC1)c1ccc(-n2c(O)c3c(c2O)[C@H]2C=C[C@@H]3C2)cc1` [N-Cyclohexyl-4-((1R,2S,6R,7S)-3,5-dioxo-4-aza-tricyclo[5.2.1.0*2,6*]dec-8-en-4-yl)-benzamide] displayed a 50% effective concentration (EC50) of more than 25 µM.
